Laboratory results reported in patent publication US7795385B2, “Use of bombesin/gastrin-releasing peptide antagonists for the treatment of inflammatory conditions, acute lung injury and bipolar disorder” (Bexar Global, Inc., priority 2004, dated 2010).

Experiments:
[1] = tested on: amphetamine (AMPH)-induced hyperactivity in rats; assay: Amphetamine-induced hyperactivity test (open field, model of mania); type: in vivo, male Wistar rats; conditions: RC-3095 0.1, 1.0 or 10.0 mg/kg i.p.
Description: Animals. A total of 120 male Wistar rats (age, 2.5-3 months; weight, 220-340 g) from an inhouse breeding colony were used. They were housed in plastic cages, 5 to a cage, with water and food freely available, under a 12-h light/dark cycle (lights on at 7:00 h). All experimental procedures were performed in accordance with the NIH Guide for the Care and Use of Laboratory Animals and the Brazilian Society for Neuroscience and Behavior (SBNeC) recommendations for animal care.
Drugs and pharmacological procedures. d-amphetamine (AMPH, 2.0 mg/kg) and RC-3095 (a gift from Dr. J. Engel, Zentaris GmbH, Germany) were dissolved in saline (SAL, 0.9% NaCl). All solutions were prepared immediately prior to administration. Animals were given a 10 ml/kg intraperitoneal (i.p.) injection of SAL or RC-3095 (0.1, 1.0 or 10.0 mg/kg) followed by an i.p. injection of SAL or AMPH […] 30 min later. Thus, the resulting experimental groups were: SAL/SAL; SAL/AMPH, RC-3095 0.1 mg/kg/AMPH, RC-3095 1.0 mg/kg/AMPH, RC-3095 10.0 mg/kg/AMPH, RC 3095 0.1 mg/kg/SAL; RC-3095 1.0 mg/kg/SAL; and RC-3095 10.0 mg/kg/SAL.
Hyperactivity test. […] Crossings of the black lines and rearings performed were counted. […]
Statistical analysis. All data are presented as mean±S.E.M. Differences among experimental groups were determined by ANOVA. […]

[2] = tested on: patient with rheumatoid arthritis; assay: Administration to a patient with rheumatoid arthritis; type: in vivo, human; conditions: 6 mg RC-3095 twice daily s.c.
Description: The composition consists of a white lyophilised cake in a 4 ml injection vial. One injection vial will be reconstituted with 2 ml water for injection.
A patient with rheumatoid arthritis, started on March 22 with 6 mg of RC-3095, twice daily. Application subcutaneously.
At baseline visit the patient presented with joint pain grade 3, joint inflammation grade 2 and depression grade 2.
Before start with RC-3095 they were already taken methotrexate, subcutaneously, once a week, and corticosteroids.
They were followed every two weeks by physical examination and laboratorial exams.

Structure (SMILES): CC(C)C[C@@H](CN[C@@H](CC(C)C)C(N)=O)NC(=O)[C@H](Cc1c[nH]cn1)NC(=O)CNC(=O)[C@@H](NC(=O)[C@H](C)NC(=O)[C@H](Cc1c[nH]c2ccccc12)NC(=O)[C@H](CCC(N)=O)NC(=O)[C@H]1Cc2c([nH]c3ccccc23)CN1)C(C)C [RC-3095, H-D-Tpi-Gln-Trp-Ala-Val-Gly-His-Leu-psi-Leu-NH2]
- other behavioral measures (sedation) [1]: did not alter
- adverse events [2]: only local (nodes and pruritus)
